Our source for the Activity and IC50 values is ChEMBL document CHEMBL5260842 (J Med Chem, 2019).

SMILES strings stand for the structures. A value given as a limit tells only on which side of the number the result lay.

Test [1] deals with T1, von Hippel-Lindau disease tumor suppressor/Androgen receptor (Homo sapiens, UniProt P10275+P40337). The test is described as follows: Protac activity at VHL/AR in AR-positive human LNCaP cells assessed as induction of androgen receptor degradation at 0.1 uM incubated for 6 hrs by Western blot analysis (reference value: 0%). It counts as cell-based. Background: A western blot detects proteins with antibodies after separation by electrophoresis.

For test [2], the target named is T1, von Hippel-Lindau disease tumor suppressor/Androgen receptor. The test is described as follows: Protac activity at VHL/AR in AR-positive human LNCaP cells assessed as induction of androgen receptor degradation at 0.01 uM incubated for 6 hrs by Western blot analysis (reference value: 0%). In kind it is cell-based.
A further test concerns LNCaP. The test is described as follows: Cytotoxicity against AR-positive human LNCaP cells assessed as inhibition of cell growth incubated for 7 days in presence of AR agonist, R1881 in charcoal stripped medium by WST-8 assay. In kind it is functional, cell-based. To be noted: 168 h. On the technique in general: Tetrazolium dyes change colour on reduction, which living cells bring about.

For the next test, the system named is VCaP. The test is described as follows: Cytotoxicity against AR-positive human VCaP cells assessed as inhibition of cell growth incubated for 7 days in presence of AR agonist, R1881 in charcoal stripped medium by WST-8 assay. In kind it is functional, cell-based. To be noted: 168 h.
The subject of another test is CWR22R. The test is described as follows: Cytotoxicity against AR-positive human 22Rv1 cells assessed as inhibition of cell growth incubated for 7 days in regular culture medium by WST-8 assay. In kind it is functional, cell-based. Particulars: 22Rv1, 168 h.

T1 sequence (P10275 whole entry, looked up): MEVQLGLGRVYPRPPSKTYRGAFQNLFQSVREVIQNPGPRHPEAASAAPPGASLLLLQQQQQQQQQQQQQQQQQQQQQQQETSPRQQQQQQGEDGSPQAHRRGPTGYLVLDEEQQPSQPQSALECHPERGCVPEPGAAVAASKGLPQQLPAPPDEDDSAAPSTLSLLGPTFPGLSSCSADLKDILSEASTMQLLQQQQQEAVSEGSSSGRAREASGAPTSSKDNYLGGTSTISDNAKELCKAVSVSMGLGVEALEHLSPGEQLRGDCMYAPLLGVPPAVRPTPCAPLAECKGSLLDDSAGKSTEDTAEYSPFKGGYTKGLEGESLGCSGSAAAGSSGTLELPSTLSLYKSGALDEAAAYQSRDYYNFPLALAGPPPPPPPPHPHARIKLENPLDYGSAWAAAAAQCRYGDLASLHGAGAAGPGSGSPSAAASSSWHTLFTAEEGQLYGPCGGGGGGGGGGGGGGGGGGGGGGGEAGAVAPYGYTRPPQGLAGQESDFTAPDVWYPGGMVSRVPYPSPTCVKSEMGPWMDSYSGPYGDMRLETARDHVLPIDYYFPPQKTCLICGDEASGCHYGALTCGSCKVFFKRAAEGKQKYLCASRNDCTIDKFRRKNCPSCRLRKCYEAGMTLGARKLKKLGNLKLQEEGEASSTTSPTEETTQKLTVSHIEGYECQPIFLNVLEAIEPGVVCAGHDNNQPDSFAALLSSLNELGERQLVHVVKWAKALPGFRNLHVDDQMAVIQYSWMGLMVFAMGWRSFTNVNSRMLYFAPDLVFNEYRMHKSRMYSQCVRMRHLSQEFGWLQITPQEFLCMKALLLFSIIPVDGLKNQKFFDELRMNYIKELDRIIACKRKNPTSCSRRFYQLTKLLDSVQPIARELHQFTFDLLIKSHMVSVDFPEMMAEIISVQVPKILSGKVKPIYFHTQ
T1 sequence (P40337 whole entry, looked up): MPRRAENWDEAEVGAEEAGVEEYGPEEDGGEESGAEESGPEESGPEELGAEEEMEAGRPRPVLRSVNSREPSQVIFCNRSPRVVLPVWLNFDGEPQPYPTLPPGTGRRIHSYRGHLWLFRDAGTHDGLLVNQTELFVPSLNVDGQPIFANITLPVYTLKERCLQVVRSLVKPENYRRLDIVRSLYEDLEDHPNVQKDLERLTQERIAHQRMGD

Turning to `Cc1ncsc1-c1ccc(CNC(=O)[C@@H]2C[C@@H](O)CN2C(=O)[C@@H](NC(=O)CCCN2CCN(c3ccc(C#Cc4ccc(N5C(=S)N(c6ccc(C#N)c(C(F)(F)F)c6)C(=O)C5(C)C)cc4)cn3)CC2)C(C)(C)C)cc1`, the Activity in test [1] came out at 50%. Regarding `Cc1cc([C@H](C(=O)N2C[C@H](O)C[C@H]2C(=O)N[C@@H](CC(=O)N2CCC(N3CCC(C#Cc4ccc(C(=O)N[C@H]5C(C)(C)[C@H](Oc6ccc(C#N)c(Cl)c6)C5(C)C)cc4)CC3)CC2)c2ccc(-c3scnc3C)cc2)C(C)C)on1`, the Activity worked out at 98% in test [1] and 76% in test [2]. As for `Cc1ncsc1-c1ccc(CNC(=O)[C@@H]2C[C@@H](O)CN2C(=O)[C@@H](NC(=O)CCOCCOCCNC(=O)c2ccc(N3C(=S)N(c4ccc(C#N)c(C(F)(F)F)c4)C(=O)C3(C)C)cc2F)C(C)(C)C)cc1`, the Activity in test [1] was determined as 32%.

Take `Cc1cc([C@H](C(=O)N2C[C@H](O)C[C@H]2C(=O)N[C@@H](CC(=O)N2CCC(N3CCC(C#Cc4ccc(N5C(=S)N(c6ccc(C#N)c(C(F)(F)F)c6)C(=O)C5(C)C)cc4)CC3)CC2)c2ccc(-c3scnc3C)cc2)C(C)C)on1`: the figures for the Activity in test [1] and in test [2] were 81% and 20%, respectively. In the case of `Cc1cc([C@H](C(=O)N2C[C@H](O)C[C@H]2C(=O)N[C@@H](CC(=O)N2CCC(N3CCC(C#Cc4ccc(Cc5c(C)nn(-c6ccc(C#N)c(Cl)c6)c5C)cc4)CC3)CC2)c2ccc(-c3scnc3C)cc2)C(C)C)on1`, the Activity in test [1] turned out to be 65%. Consider `Cc1cc([C@H](C(=O)N2C[C@H](O)C[C@H]2C(=O)N[C@@H](CC(=O)NCCCN2CCN(c3ccc(C#Cc4ccc(N5C(=S)N(c6ccc(C#N)c(C(F)(F)F)c6)C(=O)C5(C)C)cc4)cn3)CC2)c2ccc(-c3sncc3C)cc2)C(C)C)on1`, for which the Activity in test [1] was determined as 75%; in test [2], 27%. With `Cc1ncsc1-c1ccc(CNC(=O)[C@@H]2C[C@@H](O)CN2C(=O)[C@@H](NC(=O)CCCCCCc2ccc(C#Cc3ccc(N4C(=S)N(c5ccc(C#N)c(C(F)(F)F)c5)C(=O)C4(C)C)cc3)cn2)C(C)(C)C)cc1`, the Activity in test [1] amounted to 63%; in test [2], 30%.

Consider `Cc1ncsc1-c1ccc([C@H](CC(=O)N2CCC(N3CCC(C#Cc4ccc(C(=O)N[C@H]5C(C)(C)[C@H](Oc6ccc(C#N)c(Cl)c6)C5(C)C)cc4)CC3)CC2)NC(=O)[C@@H]2C[C@@H](O)CN2C(=O)[C@@H](NC(=O)C2(C#N)CC2)C(C)(C)C)cc1`, for which the Activity in test [1] stood at 99%; in test [2] it was 76%. Take `Cc1ncsc1-c1ccc([C@@H](CC(=O)N2CCC(N3CCC(C#Cc4ccc(C(=O)N[C@H]5C(C)(C)[C@H](Oc6ccc(C#N)c(Cl)c6)C5(C)C)cc4)CC3)CC2)NC(=O)[C@@H]2C[C@@H](O)CN2C(=O)[C@@H](NC(=O)C2(F)CC2)C(C)(C)C)cc1`: the Activity in test [1] is less than 5%. As to `CC(=O)N[C@H](C(=O)N1C[C@H](O)C[C@H]1C(=O)N[C@@H](CC(=O)N1CCC(N2CCC(C#Cc3ccc(C(=O)N[C@H]4C(C)(C)[C@H](Oc5ccc(C#N)c(Cl)c5)C4(C)C)cc3)CC2)CC1)c1ccc(-c2scnc2C)cc1)C(C)(C)C`, the Activity stood at 77% in test [1] and 39% in test [2].

For `Cc1ncsc1-c1ccc(CNC(=O)[C@@H]2C[C@@H](O)CN2C(=O)[C@@H](NC(=O)CCNC(=O)c2ccc(N3C(=S)N(c4ccc(C#N)c(C(F)(F)F)c4)C(=O)C3(C)C)cc2F)C(C)(C)C)cc1`, in test [1], the Activity was found to be 26%. The same measure, in the same setting: the result for `Cc1cc([C@H](C(=O)N2C[C@H](O)C[C@H]2C(=O)N[C@@H](CC(=O)N2CCC(N3CCC(C#Cc4ccc(S(=O)(=O)CC(C)(O)C(=O)Nc5ccc(C#N)c(C(F)(F)F)c5)cc4)CC3)CC2)c2ccc(-c3scnc3C)cc2)C(C)C)on1` (stereo partly drawn) reads 18%. For the compound `Cc1ncsc1-c1ccc(CNC(=O)[C@@H]2C[C@@H](O)CN2C(=O)[C@@H](NC(=O)CCCCCCCCCCNC(=O)c2ccc(N3C(=S)N(c4ccc(C#N)c(C(F)(F)F)c4)C(=O)C3(C)C)cc2F)C(C)(C)C)cc1`, the figures for the Activity in test [1] and in test [2] were 48% and 11%, respectively. As to `Cc1ncsc1-c1ccc(CNC(=O)[C@@H]2C[C@@H](O)CN2C(=O)[C@@H](NC(=O)CCCCCCCCCCCNC(=O)c2ccc(N3C(=S)N(c4ccc(C#N)c(C(F)(F)F)c4)C(=O)C3(C)C)cc2F)C(C)(C)C)cc1`, the Activity in test [1] came to 30%. On to `Cc1cc([C@H](C(=O)N2C[C@H](O)C[C@H]2C(=O)N[C@@H](CC(=O)NCCCCCCCCCNC(=O)c2ccc(C(=O)N[C@H]3C(C)(C)[C@H](Oc4ccc(C#N)c(Cl)c4)C3(C)C)cc2)c2ccc(-c3scnc3C)cc2)C(C)C)on1`, for which the Activity in test [1] was 91%; in test [2] it was 43%. The corresponding values for `Cc1ncsc1-c1ccc([C@H](C)NC(=O)[C@@H]2C[C@@H](O)CN2C(=O)[C@@H](NC(=O)CCCCN2CCN(c3ccc(C#Cc4ccc(N5C(=S)N(c6ccc(C#N)c(C(F)(F)F)c6)C(=O)C5(C)C)cc4)cn3)CC2)C(C)(C)C)cc1` are 48% and 28%. For the compound `Cc1ncsc1-c1ccc(CNC(=O)[C@@H]2C[C@@H](O)CN2C(=O)[C@@H](NC(=O)CCCNC(=O)c2ccc(N3C(=S)N(c4ccc(C#N)c(C(F)(F)F)c4)C(=O)C3(C)C)cc2F)C(C)(C)C)cc1`, in test [1], the Activity was found to be 15%. Regarding `Cc1cc([C@H](C(=O)N2C[C@H](O)C[C@H]2C(=O)N[C@@H](CC(=O)NCCCCCCCCCNC(=O)c2ccc(N3C(=S)N(c4ccc(C#N)c(C(F)(F)F)c4)C(=O)C3(C)C)cc2F)c2ccc(-c3sncc3C)cc2)C(C)C)on1`, the Activity stood at 50% in test [1] and 11% in test [2]. On to `Cc1ncsc1-c1ccc(CNC(=O)[C@@H]2C[C@@H](O)CN2C(=O)[C@@H](NC(=O)CCCCCNC(=O)c2ccc(N3C(=S)N(c4ccc(C#N)c(C(F)(F)F)c4)C(=O)C3(C)C)cc2F)C(C)(C)C)cc1`, for which the Activity in test [1] is 11%.

For `Cc1ncsc1-c1ccc([C@H](C)NC(=O)[C@@H]2C[C@@H](O)CN2C(=O)[C@@H](NC(=O)CCN2CCN(c3ccc(C#Cc4ccc(N5C(=S)N(c6ccc(C#N)c(C(F)(F)F)c6)C(=O)C5(C)C)cc4)cn3)CC2)C(C)(C)C)cc1`, the Activity in test [1] turned out to be 51%; in test [2], 34%.

As to `CC1(C)[C@H](NC(=O)c2cnn(CCO)c2)C(C)(C)[C@H]1Oc1ccc(C#N)c(Cl)c1`, the IC50 (in general, the midpoint of a concentration-inhibition curve) with LNCaP was 0.048 µM; in the test on VCaP it was 0.148 µM; with CWR22R, more than 10 µM. Regarding `Cc1ncsc1-c1ccc([C@H](CC(=O)N2CCC(N3CCC(C#Cc4ccc(C(=O)N[C@H]5C(C)(C)[C@H](Oc6ccc(C#N)c(Cl)c6)C5(C)C)cc4)CC3)CC2)NC(=O)[C@@H]2C[C@@H](O)CN2C(=O)[C@H](NC(=O)C2(F)CC2)C(C)(C)C)cc1`, the Activity in test [1] is less than 5%. As to `Cc1ncsc1-c1ccc(CNC(=O)[C@@H]2C[C@@H](O)CN2C(=O)[C@@H](NC(=O)CCCCCCCCCNC(=O)c2ccc(N3C(=S)N(c4ccc(C#N)c(C(F)(F)F)c4)C(=O)C3(C)C)cc2F)C(C)(C)C)cc1`, the Activity was found to be 48% in test [1] and 10% in test [2]. Regarding `CNC(=O)c1ccc(N2C(=S)N(c3ccc(C#N)c(C(F)(F)F)c3)C(=O)C2(C)C)cc1F` [ENZALUTAMIDE], the results for the IC50 in the test on LNCaP and in the test on VCaP were 0.025 µM and 0.0874 µM, respectively. `Cc1ncsc1-c1ccc(CNC(=O)[C@@H]2C[C@@H](O)CN2C(=O)[C@@H](NC(=O)CCCCCCCCNC(=O)c2ccc(N3C(=S)N(c4ccc(C#N)c(C(F)(F)F)c4)C(=O)C3(C)C)cc2F)C(C)(C)C)cc1`: the Activity in test [1] worked out at 66%; in test [2] it was 15%.

As for `Cc1ncsc1-c1ccc(CNC(=O)[C@@H]2C[C@@H](O)CN2C(=O)[C@@H](NC(=O)CCCCNC(=O)c2ccc(N3C(=S)N(c4ccc(C#N)c(C(F)(F)F)c4)C(=O)C3(C)C)cc2F)C(C)(C)C)cc1`, the Activity in test [1] was determined as 16%. The same measure, in the same setting: the result for `Cc1ncsc1-c1ccc([C@H](C)NC(=O)[C@@H]2C[C@@H](O)CN2C(=O)[C@@H](NC(=O)N2CCN(c3ccc(C#Cc4ccc(N5C(=S)N(c6ccc(C#N)c(C(F)(F)F)c6)C(=O)C5(C)C)cc4)cn3)CC2)C(C)(C)C)cc1` reads 0%.

For `Cc1cc([C@H](C(=O)N2C[C@H](O)C[C@H]2C(=O)N[C@@H](CC(=O)N2CCC(N3CCC(C#Cc4ccc(N5C(=S)N(c6cnc(C#N)c(C(F)(F)F)c6)C(=O)C56CCC6)cc4)CC3)CC2)c2ccc(-c3scnc3C)cc2)C(C)C)on1`, the values for the Activity in test [1] and in test [2] were 80% and 38%, respectively.

Turning to `Cc1ncsc1-c1ccc([C@H](C)NC(=O)[C@@H]2C[C@@H](O)CN2C(=O)[C@@H](NC(=O)CCCN2CCN(c3ccc(C#Cc4ccc(N5C(=S)N(c6ccc(C#N)c(C(F)(F)F)c6)C(=O)C5(C)C)cc4)cn3)CC2)C(C)(C)C)cc1`, the Activity in test [1] was found to be 61%; in test [2], 37%.

For the compound `Cc1cc([C@H](C(=O)N2C[C@H](O)C[C@H]2C(=O)N[C@@H](CC(=O)N2CCN(c3ccc(C#Cc4ccc(N5C(=S)N(c6ccc(C#N)c(C(F)(F)F)c6)C(=O)C5(C)C)cc4)cn3)CC2)c2ccc(-c3scnc3C)cc2)C(C)C)on1`, the results for the Activity in test [1] and in test [2] were 72% and 22%, respectively. For `Cc1ncsc1-c1ccc([C@H](C)NC(=O)[C@@H]2C[C@@H](O)CN2C(=O)[C@@H](NC(=O)CN2CCN(c3ccc(C#Cc4ccc(N5C(=S)N(c6ccc(C#N)c(C(F)(F)F)c6)C(=O)C5(C)C)cc4)cn3)CC2)C(C)(C)C)cc1`, the Activity in test [1] came out at 3%. For the compound `Cc1ncsc1-c1ccc(CNC(=O)[C@@H]2C[C@@H](O)CN2C(=O)[C@@H](NC(=O)CCCCCCCNC(=O)c2ccc(N3C(=S)N(c4ccc(C#N)c(C(F)(F)F)c4)C(=O)C3(C)C)cc2F)C(C)(C)C)cc1`, the Activity in test [1] was 29%; in test [2] it was 8%.

As for `Cc1ncsc1-c1ccc(CNC(=O)[C@@H]2C[C@@H](O)CN2C(=O)[C@@H](NC(=O)CCCCCCNC(=O)c2ccc(N3C(=S)N(c4ccc(C#N)c(C(F)(F)F)c4)C(=O)C3(C)C)cc2F)C(C)(C)C)cc1`, in test [1], the Activity amounted to 54%.
